Patent US20260317319A1, “NOVEL ERGOLINES AND METHODS OF TREATING MOOD DISORDERS” (Gilgamesh Pharma Inc., priority 2023, published 2026)
Read-outs that look alike come from different tables or passages of the source.

What was measured:
5-HT2B receptor = molecular target: T1, 5-HT2B receptor (Homo sapiens, UniProt P41595); test: cell-based; type: cell-based; conditions: for EC50: agonist, HEK293
T1 construct: expressed in transfected cells; host or cells: HEK293, stably transfected
Method in brief: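 FLIPR Tetra fluorescence read-out of calcium flux after compound addition. Receptor-expressing stable lines were used (HEK293 for 2A/2B; CHO with Gα15 for 1A), dye-loaded with Fluo-4 Direct and 2.5 mM final probenecid, 50 min at 37 °C.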

5-HT1A receptor = molecular target: T2, 5-HT1A receptor (Homo sapiens, UniProt P08908); test: cell-based; conditions: for Emax: CHO, read-out: 5-HT1A % Act @ Max Dose; for EC50: CHO cells with Gα15
T2 construct: expressed in transfected cells; host or cells: CHO cells, stably transfected
T2 sequence (P08908 1-422): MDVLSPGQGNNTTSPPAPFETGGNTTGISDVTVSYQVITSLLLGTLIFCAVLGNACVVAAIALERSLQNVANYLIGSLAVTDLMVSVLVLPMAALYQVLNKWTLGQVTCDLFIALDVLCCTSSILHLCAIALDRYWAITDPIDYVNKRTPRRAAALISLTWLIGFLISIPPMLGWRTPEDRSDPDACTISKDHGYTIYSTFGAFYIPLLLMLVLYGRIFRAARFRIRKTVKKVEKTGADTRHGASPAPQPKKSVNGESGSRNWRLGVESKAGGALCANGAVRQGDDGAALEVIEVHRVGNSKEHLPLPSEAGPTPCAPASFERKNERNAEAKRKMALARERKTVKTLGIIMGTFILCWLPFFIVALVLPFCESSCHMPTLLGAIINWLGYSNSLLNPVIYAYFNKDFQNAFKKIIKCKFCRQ
Method in brief: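 Receptor agonism was assessed as intracellular calcium mobilization in stably transfected cells, with CHO cells additionally carrying Gα15 for the 5-HT1A readout. Calcium was monitored with Fluo-4 Direct dye.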

5-HT1B receptor = molecular target: T3, 5-HT1B receptor (Homo sapiens, UniProt P28222); test: cAMP accumulation functional assay at 5-HT1B; type: cell-based; conditions: for Emax: read-out: 5-HT1B % Act @ Max Dose; for selectivity for 5-HT2A over 5-HT1B: functional, compared to the N-methyl prototype LSD
T3 construct: expressed in transfected cells
T3 sequence (P28222 whole entry): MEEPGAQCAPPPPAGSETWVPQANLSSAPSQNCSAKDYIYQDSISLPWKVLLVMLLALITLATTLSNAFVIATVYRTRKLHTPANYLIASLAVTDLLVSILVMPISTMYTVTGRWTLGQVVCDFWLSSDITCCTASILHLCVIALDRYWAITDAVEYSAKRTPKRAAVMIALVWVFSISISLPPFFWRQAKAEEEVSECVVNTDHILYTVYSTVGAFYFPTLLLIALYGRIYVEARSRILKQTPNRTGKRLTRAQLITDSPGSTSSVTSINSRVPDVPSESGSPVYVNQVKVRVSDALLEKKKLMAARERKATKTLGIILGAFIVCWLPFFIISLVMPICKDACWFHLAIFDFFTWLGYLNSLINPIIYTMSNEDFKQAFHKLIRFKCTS
Method in brief: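 Agonist activity measured as cAMP accumulation in cells stably transfected with human 5-HT1B. Cells incubated 60 min at RT, then detection reagent added for a further 60 min at RT before plate reading.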

in vitro [1] = type: in vitro ADME, human; conditions: for microsomal CLint: read-out: Intrinsic clearance (Clint); for half-life: read-out: half-life (t1/2)
in vitro [2] = type: in vitro ADME, mouse; conditions: for microsomal CLint: read-out: Intrinsic clearance (Clint); for half-life: read-out: half-life (t1/2)
Description: MLM Stability Pooled MLM from male CD-1 mice (BIOIVT M00501) were used.

in vitro [3] = type: in vitro ADME, rat; conditions: for microsomal CLint: read-out: Intrinsic clearance (Clint); for half-life: read-out: half-life (t1/2)
Description: RLM Stability Pooled RLM from male Sprague-Dawley rats (Xenotech R1000) were used.

5-HT2A receptor [4] = molecular target: T4, 5-HT2A receptor (Homo sapiens, UniProt P28223); test: biochemical; type: binding; set-up: expressed in transfected cells; host or cells: HEK293, stably transfected; conditions: [3H]ketanserin 1 nM; HEK293 stable cell line; 1 h, 25 °C
T4 sequence (P28223 whole entry): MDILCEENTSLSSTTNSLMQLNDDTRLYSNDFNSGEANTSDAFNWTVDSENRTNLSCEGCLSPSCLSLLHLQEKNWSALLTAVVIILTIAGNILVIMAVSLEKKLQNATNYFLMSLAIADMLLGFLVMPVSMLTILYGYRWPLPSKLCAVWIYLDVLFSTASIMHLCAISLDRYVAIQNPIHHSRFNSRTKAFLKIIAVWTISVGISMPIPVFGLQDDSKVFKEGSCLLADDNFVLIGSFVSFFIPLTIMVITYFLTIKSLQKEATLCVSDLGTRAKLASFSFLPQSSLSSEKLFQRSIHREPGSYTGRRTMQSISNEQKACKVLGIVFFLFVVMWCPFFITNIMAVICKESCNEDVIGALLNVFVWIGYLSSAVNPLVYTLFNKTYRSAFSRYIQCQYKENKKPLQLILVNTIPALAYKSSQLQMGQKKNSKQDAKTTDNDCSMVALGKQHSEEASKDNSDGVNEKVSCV
Method in brief: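 Binding affinity comes from a [^3H]ketanserin radioligand assay run under literature-adapted conditions.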

5-HT2A receptor [5] = molecular target: T4, 5-HT2A receptor; test: cell-based; type: cell-based; set-up: expressed in transfected cells; host or cells: HEK293, stably transfected; conditions: for EC50: agonist, HEK293
Method in brief: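 Agonist activity measured by FLIPR Ca2+ flux in stably transfected cells: HEK293 for 5-HT2A and 5-HT2B, CHO co-expressing Gα15 for 5-HT1A. Cells loaded with Fluo-4 Direct dye plus probenecid (2.5 mM final) for 50 min at 37 °C, 5% CO2; compounds added and fluorescence read on FLIPR Tetra.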

5-HT2A receptor [6] = molecular target: T4, 5-HT2A receptor; test: cell-based; type: cell-based; conditions: for Emax: read-out: 5-HT2A Arrestin % Act @ Max Dose
Method in brief: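 PathHunter β-arrestin recruitment (enzyme fragment complementation): 5-HT2A fused to ProLink donor in cells co-expressing β-arrestin–β-galactosidase acceptor, seeded and held at 37° C before testing. Chemiluminescent read-out; agonist % activity = (sample RLU − vehicle)/(max control ligand − vehicle) × 100.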

[7] = HEK293, agonist, Ca2+ flux, HEK293, max dose, read-out: 5-HT2B % Act @ Max Dose
[8] = agonist, Ca2+ flux, CHO cells with Gα15, max dose
[9] = agonist, cAMP accumulation, max dose
[10] = human, microsomes, HLM 0.50 mg/mL, NADPH 1 mM, 1 μM compound, pH 7.4, 37° C., 60 min
[11] = mouse, microsomes, MLM (male CD-1) 0.50 mg/mL, NADPH 1 mM, 1 μM compound, pH 7.4, 37° C., 60 min
[12] = rat, microsomes, RLM (male Sprague-Dawley) 0.50 mg/mL, NADPH 1 mM, 1 μM compound, pH 7.4, 37° C., 60 min
[13] = HEK293, agonist, Ca2+ flux, HEK293, max dose, read-out: 5-HT2A % Act @ Max Dose
[14] = agonist, beta-arrestin recruitment, max dose
[15] = HLM 0.50 mg/mL, NADPH 1 mM, 1 μM compound, pH 7.4, 37° C., 60 min
[16] = MLM (male CD-1) 0.50 mg/mL, NADPH 1 mM, 1 μM compound, pH 7.4, 37° C., 60 min
[17] = RLM (male Sprague-Dawley) 0.50 mg/mL, NADPH 1 mM, 1 μM compound, pH 7.4, 37° C., 60 min

T1 sequence (P41595 whole entry): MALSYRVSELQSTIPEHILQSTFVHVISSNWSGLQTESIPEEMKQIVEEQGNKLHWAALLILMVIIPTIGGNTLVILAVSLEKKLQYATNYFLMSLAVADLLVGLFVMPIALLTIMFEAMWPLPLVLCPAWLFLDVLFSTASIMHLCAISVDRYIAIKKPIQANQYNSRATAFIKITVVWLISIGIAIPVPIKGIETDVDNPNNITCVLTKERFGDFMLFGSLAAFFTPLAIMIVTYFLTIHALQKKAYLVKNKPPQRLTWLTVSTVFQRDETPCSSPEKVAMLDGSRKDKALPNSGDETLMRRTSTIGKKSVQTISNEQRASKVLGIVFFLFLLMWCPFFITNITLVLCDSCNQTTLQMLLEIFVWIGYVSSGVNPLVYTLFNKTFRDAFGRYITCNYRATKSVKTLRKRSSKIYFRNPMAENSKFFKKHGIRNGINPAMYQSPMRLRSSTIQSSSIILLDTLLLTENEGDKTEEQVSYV

Row | SMILES | Emax (5-HT2B receptor; [7]) [%] | EC50 (5-HT2B receptor; Ca2+ flux) [nM] | Emax (5-HT1A receptor; [8]) [%] | EC50 (5-HT1A receptor; agonist, Ca2+ flux) [nM] | EC50 (5-HT1B receptor; agonist, cAMP accumulation) [nM] | Emax (5-HT1B receptor; [9]) [%] | microsomal CLint (in vitro [1]; [10]) [µL/min/mg] | half-life (in vitro [1]; [10]) [min] | microsomal CLint (in vitro [2]; [11]) [µL/min/mg] | half-life (in vitro [2]; [11]) [min] | microsomal CLint (in vitro [3]; [12]) [µL/min/mg] | half-life (in vitro [3]; [12]) [min] | Emax (5-HT2A receptor [5]; [13]) [%] | Emax (5-HT2A receptor [6]; [14]) [%] | stability in HLM (in vitro [1]) | half-life (t1/2) (in vitro [1]; [15]) [min] | stability in MLM (in vitro [2]) | half-life (t1/2) (in vitro [2]; [16]) [min] | stability in RLM (in vitro [3]) | half-life (t1/2) (in vitro [3]; [17]) [min] | further results
1 | CCN(CC)C(=O)[C@@H]1C=C2c3cccc4[nH]cc(c34)C[C@H]2N(Cc2ccon2)C1 [Compound 70, (6aR,9R)—N,N-diethyl-7-(isoxazol-3-ylmethyl)-4,6,6a,7,8,9-hexahydroindolo[4,3-fg]quinoline-9-carboxamide] | 34.4 | 449 | 58.6 | 62300 | > 10000 | 17.8 | 54.3 | 25.5 | 154 | 9 | 47.9 | 28.9 | 84.7 | – | – | – | – | – | – | – | Ki (5-HT2A receptor [4]): 13.6 nM; EC50 (5-HT2A receptor [5]; Ca2+ flux): 38 nM
2 | CCCN1C[C@H](C(=O)NC(CC)CC)C=C2c3cccc4[nH]cc(c34)C[C@H]21 [Compound 6, (6aR,9R)—N-(pentan-3-yl)-7-propyl-4,6,6a,7,8,9-hexahydroindolo[4,3-fg]quinoline-9-carboxamide] | 92.9 | – | 102 | – | – | 94.6 | – | – | – | – | – | – | 94.6 | 103 | much lower stability (higher clearance) | 1.607 | much lower stability (higher clearance) | 0.6 | much lower stability (higher clearance) | 1.655 | selectivity for 5-HT2A over 5-HT1B (5-HT1B receptor): greater selectivity for 5-HT2A over 5-HT1B; 5-HT2A arrestin agonist class (5-HT2A receptor [6]; beta-arrestin recruitment): full agonists
3 | CCN(CC)C(=O)[C@@H]1C=C2c3cccc4[nH]cc(c34)C[C@H]2N(Cc2cccc(C#N)c2)C1 [Compound 76, (6aR,9R)—N,N-diethyl-7-(3-cyanobenzyl)-4,6,6a,7,8,9-hexahydroindolo[4,3-fg]quinoline-9-carboxamide] | 0.93 | > 10000 | 77 | 25400 | 1490 | 93.4 | 64.1 | 21.6 | 576 | 2.4 | 114 | 12.1 | 82.1 | – | – | – | – | – | – | – | Ki (5-HT2A receptor [4]): 98.5 nM; EC50 (5-HT2A receptor [5]; Ca2+ flux): 6620 nM
4 | CCCN1C[C@H](C(=O)N2[C@@H](C)C[C@@H]2C)C=C2c3cccc4[nH]cc(c34)C[C@H]21 [Compound 4, ((2S,4S)-2,4-dimethylazetidin-1-yl)((6aR,9R)-7-propyl-4,6,6a,7,8,9-hexahydroindolo[4,3-fg]quinolin-9-yl)methanone] | 87.5 | – | 123 | – | – | 96 | – | – | – | – | – | – | 97.6 | 117 | much lower stability (higher clearance) | 10.6 | much lower stability (higher clearance) | 0.8 | much lower stability (higher clearance) | 12.8 | selectivity for 5-HT2A over 5-HT2B (5-HT2B receptor; functional, compared to closest N-methyl counterparts Int8, Int11, Int17): more selective for 5-HT2A over 5-HT2B; selectivity for 5-HT2A over 5-HT1B (5-HT1B receptor): greater selectivity for 5-HT2A over 5-HT1B; 5-HT2A arrestin agonist class (5-HT2A receptor [6]; beta-arrestin recruitment): full agonists
5 | CCN(CC)C(=O)[C@@H]1C=C2c3cccc4[nH]cc(c34)C[C@H]2N(Cc2cocn2)C1 [Compound 73, (6aR,9R)—N,N-diethyl-7-(oxazol-4-ylmethyl)-4,6,6a,7,8,9-hexahydroindolo[4,3-fg]quinoline-9-carboxamide] | 60.9 | 375 | 78.7 | 586 | 1370 | 73.6 | 45.6 | 30.4 | 76.7 | 18.1 | 51.8 | 26.8 | 92.1 | – | – | – | – | – | – | – | Ki (5-HT2A receptor [4]): 8.2 nM; EC50 (5-HT2A receptor [5]; Ca2+ flux): 47.6 nM
6 | CCN(CC)C(=O)[C@@H]1C=C2c3cccc4[nH]cc(c34)C[C@H]2N(CCCF)C1 [Compound 2, (6aR,9R)—N,N-diethyl-7-(3-fluoropropyl)-4,6,6a,7,8,9-hexahydroindolo[4,3-fg]quinoline-9-carboxamide] | 101 | – | 92.4 | – | – | 90 | – | – | – | – | – | – | 97.8 | 115 | much lower stability (higher clearance) | 19.061 | much lower stability (higher clearance) | 2.666 | much lower stability (higher clearance) | 11.972 | selectivity for 5-HT2A over 5-HT1B (5-HT1B receptor): greater selectivity for 5-HT2A over 5-HT1B; 5-HT2A arrestin agonist class (5-HT2A receptor [6]; beta-arrestin recruitment): full agonists
7 | CCN(CC)C(=O)[C@@H]1C=C2c3cccc4[nH]cc(c34)C[C@H]2N(Cc2ccccc2OC)C1 [Compound 10, (6aR,9R)—N,N-diethyl-7-(2-methoxybenzyl)-4,6,6a,7,8,9-hexahydroindolo[4,3-fg]quinoline-9-carboxamide] | 2 | – | 53 | – | – | 87.3 | – | – | – | – | – | – | 49.4 | 47.1 | much lower stability (higher clearance) | 7.3 | much lower stability (higher clearance) | 1 | much lower stability (higher clearance) | 3.4 | Intrinsic clearance (Clint) (in vitro [1]; [15]): 190.3 µL/min/mg; Intrinsic clearance (Clint) (in vitro [2]; [16]): 1396.8 µL/min/mg; Intrinsic clearance (Clint) (in vitro [3]; [17]): 407.4 µL/min/mg
8 | CCN(CC)C(=O)[C@@H]1C=C2c3cccc4[nH]cc(c34)C[C@H]2N(C)C1 [LSD, lysergic acid diethylamide, reference compound] | – | – | – | – | – | – | – | – | – | – | – | – | – | – | – | – | – | – | – | – | Emax (5-HT2B receptor; HEK293, read-out: 5-HT2B % Act @ Max Dose): 19.3%; Emax (5-HT1A receptor): 91.4%; Emax (5-HT1B receptor): 98%; 5-HT2A arrestin agonist class (5-HT2A receptor [6]): partial agonists; Emax (5-HT2A receptor [6]): 52.6%; half-life (t1/2) (in vitro [1]; human, microsomes, pH 7.4): 71.6 min; half-life (t1/2) (in vitro [2]; mouse, microsomes, pH 7.4): 31.3 min; half-life (t1/2) (in vitro [3]; rat, microsomes, pH 7.4): 60.2 min; Emax (5-HT2A receptor [5]; HEK293, read-out: 5-HT2A % Act @ Max Dose): 108%
